Laboratory results taken from publication PMC6222857, “Synthesis and Preliminary Evaluation of Biological Activity of Glycoconjugates Analogues of Acyclic Uridine Derivatives” (Molecules : A Journal of Synthetic Chemistry and Natural …, 2018).

Target: T1, β-1,4-galactosyltransferase I (β4GalT) from bovine milk (Bos taurus, UniProt P08037)
T1 construct: gene B4GALT1
T1 sequence (P08037 1-402): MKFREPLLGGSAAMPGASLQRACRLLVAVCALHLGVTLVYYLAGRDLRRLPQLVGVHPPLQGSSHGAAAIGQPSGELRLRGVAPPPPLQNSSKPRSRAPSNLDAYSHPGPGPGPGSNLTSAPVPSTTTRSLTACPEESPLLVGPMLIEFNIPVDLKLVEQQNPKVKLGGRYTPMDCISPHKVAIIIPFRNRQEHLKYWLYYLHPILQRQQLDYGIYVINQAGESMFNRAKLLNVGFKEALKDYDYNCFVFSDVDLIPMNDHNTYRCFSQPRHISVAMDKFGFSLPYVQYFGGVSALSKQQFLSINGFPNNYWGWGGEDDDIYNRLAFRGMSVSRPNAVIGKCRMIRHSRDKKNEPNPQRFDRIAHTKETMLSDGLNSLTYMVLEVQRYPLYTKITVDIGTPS
Assay: RP-HPLC enzymatic assay with fluorescence detection: galactose transfer from UDP-Gal to esculine
Format: biochemical

Compound `O=C(CCOCn1ccc(=O)[nH]c1=O)Nc1ccc(S[C@@H]2O[C@H](CO)[C@@H](O)[C@H](O)[C@H]2O)nc1` [compound 64, Glycoconjugate 64] has an IC50 of 710 µM.
